Data as given in patent US6548494B1, “Tricyclic inhibitors of poly(ADP-ribose) polymerases” (Agouron Pharmaceuticals, Inc., priority 1999, dated 2003).
pKi: −log10 of the molar value. “And” between values parts separate entries of the source, which are not always exact repeats. Equal entries are not always repeated.

Key:
purified PARP protein = purified PARP protein (Homo sapiens, UniProt P09874); assay: PARP enzyme inhibition assay; format: biochemical; conditions: 20 nM purified PARP (5 nM for tight-binding inhibitors), 500 μM NAD+, 25° C.; several values in one cell = repeat determinations; read-out: Inhibition Constant Ki
Chain of purified PARP protein (P09874 whole entry): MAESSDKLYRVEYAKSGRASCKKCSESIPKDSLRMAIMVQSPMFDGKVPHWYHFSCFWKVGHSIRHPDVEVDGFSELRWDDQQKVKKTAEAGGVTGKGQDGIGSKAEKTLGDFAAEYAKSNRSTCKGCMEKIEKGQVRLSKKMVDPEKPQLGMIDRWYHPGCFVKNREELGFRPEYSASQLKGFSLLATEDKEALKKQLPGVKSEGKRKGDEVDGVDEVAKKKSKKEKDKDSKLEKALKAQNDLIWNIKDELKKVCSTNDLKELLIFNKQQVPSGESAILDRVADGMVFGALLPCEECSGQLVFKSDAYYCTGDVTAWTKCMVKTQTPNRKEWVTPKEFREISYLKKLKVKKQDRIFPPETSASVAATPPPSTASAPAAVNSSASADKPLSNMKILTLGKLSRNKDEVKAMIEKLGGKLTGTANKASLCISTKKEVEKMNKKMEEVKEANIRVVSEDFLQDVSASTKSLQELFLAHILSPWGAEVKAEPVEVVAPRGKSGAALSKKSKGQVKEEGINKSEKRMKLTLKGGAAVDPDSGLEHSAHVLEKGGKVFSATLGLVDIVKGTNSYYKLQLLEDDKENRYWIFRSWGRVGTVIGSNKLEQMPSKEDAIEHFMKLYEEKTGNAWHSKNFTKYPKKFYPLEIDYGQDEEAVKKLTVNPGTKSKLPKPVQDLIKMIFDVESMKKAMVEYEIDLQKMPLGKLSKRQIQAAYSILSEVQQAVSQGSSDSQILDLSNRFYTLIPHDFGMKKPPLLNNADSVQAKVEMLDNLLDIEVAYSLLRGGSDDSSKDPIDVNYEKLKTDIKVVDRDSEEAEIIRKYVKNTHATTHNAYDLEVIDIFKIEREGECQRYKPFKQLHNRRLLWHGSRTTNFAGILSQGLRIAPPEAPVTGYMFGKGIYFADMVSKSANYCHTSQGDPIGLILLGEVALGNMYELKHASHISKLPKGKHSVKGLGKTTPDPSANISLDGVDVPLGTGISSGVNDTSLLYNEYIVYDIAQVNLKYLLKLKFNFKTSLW

A549 cells = assay: Cytotoxicity potentiation assay; format: cell-based; conditions: test compound 0.4 μM, ratio of IC50 of topotecan alone to IC50 of topotecan with test compound
Protocol: A549 cells (ATCC, Rockville, Md.) were seeded into 96-well cell culture plates (Falcon brand, Fisher Scientific, Pittsburgh, Pa.) 16 to 24 hours before experimental manipulation. Cells were then treated with a test compound (or a combination of test compounds where indicated) each at a concentration of 0.4 μM for either 3 days or 5 days. At the end of treatments, relative cell number was determined either by MTT assay or SRB assay. For the MTT assay, 0.2 μg/μl of MTT (3-(4,5-dimethylthiazol-2-yl)-2,5-diphenyltetrazolium bromide) (Sigma Chemical Co., St. Louis, Mo.) was added to each well of a plate, and the plate was incubated in a cell-culture incubator for 4 hours. Metabolized MTT in each well was solubilized in 150 μl of DMSO (Sigma Chemical Co.) with shaking and quantified with a Wallac 1420 Victor plate reader (EG&G Wallac, Gaithersburg, Md.) at 540 nm. For the SRB assay, cells were fixed with 10% trichloroacetic acid (Sigma Chemical Co) for an hour at 4° C. After extensively washing, fixed cells were stained for 30 minutes with 0.4% sulforhodamine B (SRB, Sigma Chemical Co.) in 1% acetic acid (Sigma Chemical Co). Unbound SRB was washed away with 1% acetic acid. Then the cultures were air-dried, and dye was solubilized with 10 mM unbuffered Tris base (Sigma Chemical Co) with shaking. The bound dye was measured photometrically with the Wallac Victor plate reader at 515 nm. The ratio of the OD (optical density) value of a compound-treated culture to the OD value of a mock-treated culture, expressed in percentage, was used to quantify the cytotoxicity of a compound. […] To quantify the potentiation of the cytotoxicity of topotecan or temozolomide by test compounds, a dimensionless parameter PF50 is used and is defined as the ratio of the IC50 of topotecan or temozolomide alone to the IC50 of topotecan or temozolomide in combination with a test compound. For the compounds of the invention, PF50 values were determined by testing with topotecan.

CNCc1cccc(-c2nc3cccc4c3n2CCNC4=O)c1 [Example 59, 1-(3-Methylaminomethyl-phenyl)-8,9-dihydro-7H-2,7,9a-triaza-benzo[cd]azulen-6-one]
pKi (purified PARP protein): 8.38 | Cytotoxicity Potentiation PF50 (A549 cells): 1.8 | melting point: 110 °C (dec.)

O=C1NCCn2c(-c3ccc(C4CCCNC4)cc3)nc3cccc1c32 (centres unmarked) [Example 142, 1-(4-Piperidin-3-yl-phenyl)-8,9-dihydro-7H-2,7,9a-triaza-benzo[cd]azulen-6-one]
pKi (purified PARP protein): 8.42 | Cytotoxicity Potentiation PF50 (A549 cells): 2.2 | melting point: > 230 °C (dec.)

CN(C)Cc1cccc(-c2cc3cccc4c3n2CCNC4=O)c1 [Example 86, 6-(3-Dimethylaminomethyl-phenyl)-3,4-dihydro-2H-[1,4]diazepino[6,7,1-hi]indol-1-one]
pKi (purified PARP protein): 8.04 | Cytotoxicity Potentiation PF50 (A549 cells): 1.6 | melting point: 98 to 100 °C

O=C1NCCn2c(-c3ccc(F)c(F)c3)nc3cccc1c32 [Example 4, 1-(3,4-Difluoro-phenyl)-8,9-dihydro-7H-2,7,9a-triaza-benzo[cd]azulen-6-one]
pKi (purified PARP protein): 8.19 | Cytotoxicity Potentiation PF50 (A549 cells): 1.5 | melting point: 245 to 247 °C

O=C1NCCn2c(-c3ccc(F)cc3)nc3cc(F)cc1c32 [Example 18, 4-Fluoro-1-(4-fluoro-phenyl)-8,9-dihydro-7H-2,7,9a-triaza-benzo[cd]azulen-6-one]
pKi (purified PARP protein): 8.47 | Cytotoxicity Potentiation PF50 (A549 cells): 2 | melting point: 284 to 287 °C

CN(C)Cc1ccc(-c2nc3cc(F)cc4c3n2CCNC4=O)cc1 [Example 99, 4-Fluoro-1-(4-dimethylaminomethyl-phenyl)-8,9-dihydro-7H-2,7,9a-triaza-benzo[cd]azulen-6-one]
pKi (purified PARP protein): 8.77 | Cytotoxicity Potentiation PF50 (A549 cells): 2.0 | melting point: 240 °C (dec.)

O=C1NCCn2c(-c3ccc(CN4CCOCC4)cc3)nc3cccc1c32 [Example 76, 1-(4-Morpholin-4-ylmethyl-phenyl)-8,9-dihydro-7H-2,7,9a-triaza-benzo[cd]azulen-6-one]
pKi (purified PARP protein): 8.29 | Cytotoxicity Potentiation PF50 (A549 cells): 1.6 | melting point: 285 to 286 °C (dec.)

COCCNCc1ccc(-c2nc3cccc4c3n2CCNC4=O)cc1 [Example 77, 1-(4-[(2-Methoxyethylamino)methyl]-phenyl)-8,9-dihydro-7H-2,7,9a-triaza-benzo[cd]azulen-6-one]
pKi (purified PARP protein): 8.16 | Cytotoxicity Potentiation PF50 (A549 cells): 1.7 | melting point: 154 to 157 °C

O=C1NCCn2c(-c3ccncc3)nc3cccc1c32 [Example 3, 1-Pyridin-4-yl-8,9-dihydro-7H-2,7,9a-triaza-benzo[cd]azulen-6-one]
pKi (purified PARP protein): 7.96 and 7.92 | Cytotoxicity Potentiation PF50 (A549 cells): 1.4 | melting point: 269 °C (dec.)

O=C1NCCn2c(-c3cccnc3)nc3cccc1c32 [Example 7, 1-Pyridin-3-yl-8,9-dihydro-7H-2,7,9a-triaza-benzo[cd]azulen-6-one]
pKi (purified PARP protein): 8.29 | Cytotoxicity Potentiation PF50 (A549 cells): 1.4

S=C1NCCn2c(-c3ccccc3)nc3cccc1c32 [Example 25, 1-Phenyl-8,9-dihydro-7H-2,7,9a-triaza-benzo[cd]azulen-6-thione]
Cytotoxicity Potentiation PF50 (A549 cells): 1.4 | melting point: 224 °C (dec.)

CN(CCc1cc2ccccc2[nH]1)Cc1ccc(-c2nc3cccc4c3n2CCNC4=O)cc1 [Example 207, 1-[4-({[2-(1H-Indol-2-yl)-ethyl]-methyl-amino}-methyl)-phenyl]-8,9-dihydro-7H-2,7,9a-triaza-benzo[cd]azulen-6-one]
pKi (purified PARP protein): 8.38 | Cytotoxicity Potentiation PF50 (A549 cells): 2.4

O=C1NCCn2c(-c3ccc(CCN4CCCC4)cc3)nc3cccc1c32 [Example 128, 1-[4-(2-Pyrrolidin-1-yl-ethyl)-phenyl]-8,9-dihydro-7H-2,7,9a-triaza-benzo[cd]azulen-6-one]
pKi (purified PARP protein): 8.40 and 8.27 | Cytotoxicity Potentiation PF50 (A549 cells): 1.8 | melting point: > 201 °C (dec.)

O=C1NCCn2c(-c3ccc(CN4CCCC4)cc3)nc3cccc1c32 [Example 210, 1-(4-Pyrrolidin-1-ylmethyl-phenyl)-8,9-dihydro-7H-2,7,9a-triaza-benzo[cd]azulen-6-one]
pKi (purified PARP protein): 8.30 | Cytotoxicity Potentiation PF50 (A549 cells): 2.3

O=C1NCCn2c(-c3cccc(Oc4ccncc4)c3)nc3cccc1c32 [Example 17, 1-[3-(Pyridin-4-yloxy)-phenyl]-8,9-dihydro-7H-2,7,9a-triaza-benzo[cd]azulen-6-one]
pKi (purified PARP protein): 8.32 and 8.28 | Cytotoxicity Potentiation PF50 (A549 cells): 1.7 | melting point: 245 to 247 °C

O=C1NCCn2c(-c3ccc(-c4ccccn4)cc3)nc3cccc1c32 [Example 126, 1-(4-Pyridin-2-yl-phenyl)-8,9-dihydro-7H-2,7,9a-triaza-benzo[cd]azulen-6-one]
pKi (purified PARP protein): 8.39 | Cytotoxicity Potentiation PF50 (A549 cells): 2.2 | melting point: 277 to 279 °C

O=C1NCCn2c(O)nc3cccc1c32 [Example 26, 8,9-Dihydro-2H 7H-2,7,9a-triaza-benzo[cd]azulen-1,6-dione]
pKi (purified PARP protein): 6.99 | Cytotoxicity Potentiation PF50 (A549 cells): 1.1

O=C1NCCn2c(-c3ccc(C4CCCN4)cc3)nc3cccc1c32 (centres unmarked) [Example 148, 1-(4-Pyrrolidin-2-yl-phenyl)-8,9-dihydro-7H-2,7,9a-triaza-benzo[cd]azulen-6-one]
pKi (purified PARP protein): 8.55 | Cytotoxicity Potentiation PF50 (A549 cells): 2.5 | melting point: 220 to 223 °C (dec.)

C[C@H]1Cn2c(-c3ccc(CN4CCCC4)cc3)nc3cccc(c32)C(=O)N1 [Example 233, (S)-8-Methyl-1-(4-pyrrolidin-1-ylmethyl-phenyl)-8,9-dihydro-7H-2,7,9a-triaza-benzo[cd]azulen-6-one]
pKi (purified PARP protein): 8.10 | Cytotoxicity Potentiation PF50 (A549 cells): 2.2

CC1C=CC(C)N1Cc1ccc(-c2nc3cccc4c3n2CCNC4=O)cc1 (racemic) [Example 243, 1-[4-(2,5-Dimethyl-2,5-dihydro-pyrrol-1-ylmethyl)-phenyl]-8,9-dihydro-7H-2,7,9a-triaza-benzo[cd]azulen-6-one]
pKi (purified PARP protein): 8.05 | Cytotoxicity Potentiation PF50 (A549 cells): 2.0

COc1cccc(CCNCc2ccc(-c3nc4cccc5c4n3CCNC5=O)cc2)c1 [Example 184, 1-(4-{[2-(3-Methoxy-phenyl)-ethylamino]-methyl}-phenyl)-2,7,8,9-tetrahydro-2,7,9a-triaza-benzo[cd]azulen-6-one]
pKi (purified PARP protein): 8.22 | Cytotoxicity Potentiation PF50 (A549 cells): 2.2

CC1CCCN1Cc1ccc(-c2nc3cccc4c3n2CCNC4=O)cc1 (centres unmarked) [Example 212, 1-[4-(2-Methyl-pyrrolidin-1-ylmethyl)-phenyl]-8,9-dihydro-7H-2,7,9a-triaza-benzo[cd]azulen-6-one]
pKi (purified PARP protein): 8.17 | Cytotoxicity Potentiation PF50 (A549 cells): 2.0

O=C1NCCn2c(-c3ccc(CN4CCCC4)cc3)nc3cc(F)cc1c32 [Example 211, 4-Fluoro-1-(4-pyrrolidin-1-ylmethyl-phenyl)-8,9-dihydro-7H-2,7,9a-triaza-benzo[cd]azulen-6-one]
pKi (purified PARP protein): 8.35 | Cytotoxicity Potentiation PF50 (A549 cells): 2.3

O=C1NCCn2c(-c3ccc(CNC4Cc5ccccc5C4)cc3)nc3cccc1c32 [Example 197, 1-[4-(Indan-2-ylaminomethyl)-phenyl]-8,9-dihydro-7H-2,7,9a-triaza-benzo[cd]azulen-6-one]
pKi (purified PARP protein): 8.55 and 8.28 | Cytotoxicity Potentiation PF50 (A549 cells): 2.5

O=C1NCCn2c(-c3ccc(F)cc3)nc3cccc1c32 [Example 2, 1-(4-Fluoro-phenyl)-8,9-dihydro-7H-2,7,9a-triaza-benzo[cd]azulen-6-one]
pKi (purified PARP protein): 8.10 and 8.22 | Cytotoxicity Potentiation PF50 (A549 cells): 1.6

CN(C)Cc1ccc(-c2nc3cccc4c3n2CCNC4=O)cc1 [Example 58, 1-(4-Dimethylaminomethyl-phenyl)-8,9-dihydro-7H-2,7,9a-triaza-benzo[cd]azulen-6-one]
pKi (purified PARP protein): 8.24 | Cytotoxicity Potentiation PF50 (A549 cells): 2.0

C[C@H]1Cn2c(-c3ccc(CN4CC=CC4)cc3)nc3cccc(c32)C(=O)N1 [Example 223, (S)-1-[4-(2,5-Dihydro-pyrrol-1-ylmethyl)-phenyl]-8-methyl-8,9-dihydro-7H-2,7,9a-triaza-benzo[cd]azulen-6-one]
pKi (purified PARP protein): 8.07 | Cytotoxicity Potentiation PF50 (A549 cells): 2.1

COc1ccc(CCNCc2ccc(-c3nc4cccc5c4n3CCNC5=O)cc2)cc1 [Example 186, 1-(4-{[2-(4-Methoxy-phenyl)-ethylamino]-methyl}-phenyl)-2,7,8,9-tetrahydro-2,7,9a-triaza-benzo[cd]azulen-6-one]
pKi (purified PARP protein): 8.26 | Cytotoxicity Potentiation PF50 (A549 cells): 2.2

CC(c1ccc(-c2nc3cccc4c3n2CCNC4=O)cc1)N(C)C (centres unmarked) [Example 245, 1-[4-(1-Dimethylamino-ethyl)-phenyl]-8,9-dihydro-7H-2,7,9a-triaza-benzo[cd]azulen-6-one]
pKi (purified PARP protein): 8.24 | Cytotoxicity Potentiation PF50 (A549 cells): 2.1
